Results as given in patent US20240246964A1 (Arbutus Biopharma Corporation, priority 2021, published 2024).
pEC50: −log10 of the molar value.

Target: human PD-L1 (Homo sapiens (Human), UniProt Q9NZQ7)
Test: T cell activation luciferase reporter cell culture system (T Cell Activation Assay)
Format: cell-based
Settings: luciferase reporter assay; PD-L1 aAPC/CHO-K1 cells with PD-1 effector Jurkat T cells

Sequence of human PD-L1 (Q9NZQ7 19-290): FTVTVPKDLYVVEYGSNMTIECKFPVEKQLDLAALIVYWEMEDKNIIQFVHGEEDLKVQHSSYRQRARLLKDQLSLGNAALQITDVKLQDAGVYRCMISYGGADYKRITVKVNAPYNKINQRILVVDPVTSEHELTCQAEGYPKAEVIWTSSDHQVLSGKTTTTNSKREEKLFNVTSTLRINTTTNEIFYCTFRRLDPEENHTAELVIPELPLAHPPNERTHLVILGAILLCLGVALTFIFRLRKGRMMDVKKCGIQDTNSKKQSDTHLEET

For `COc1nc(-c2cccc(-c3ccnc(-c4ccc5c(CNC6CCN(C(C)=O)CC6)cn(C)c5c4)c3Cl)c2Cl)ccc1CNC1CCN(C(C)=O)CC1` [Cmpd 277, 1-(4-(((6-(3-(2-(3-(((1-acetylpiperidin-4-yl)amino)methyl)-1-methyl-1H-indol-6-yl)-3-chloropyridin-4-yl)-2-chlorophenyl)-2-methoxypyridin-3-yl)methyl)amino)piperidin-1-yl)ethan-1-one], the pEC50 was 6.77.
In the case of `COc1cc(-c2nccc(-c3cccc(-c4ccc(CNCCC(=O)O)c(OC)n4)c3Cl)c2Cl)ccc1CNC1CCN(C(C)=O)CC1` [Cmpd 389, 3-(((6-(3-(2-(4-(((1-acetylpiperidin-4-yl)amino)methyl)-3-methoxyphenyl)-3-chloropyridin-4-yl)-2-chlorophenyl)-2-methoxypyridin-3-yl)methyl)amino)propanoic acid], the pEC50 was 7.45.
In the case of `COc1cc(-c2nccc(-c3cccc(-c4ccc(CNC5CCN(C(C)=O)CC5)c(OC)n4)c3C#N)c2Cl)ccc1CNC1CCN(C(C)=O)CC1` [Cmpd 615, 2-(2-(4-(((1-acetylpiperidin-4-yl)amino)methyl)-3-methoxyphenyl)-3-chloropyridin-4-yl)-6-(5-(((1-acetylpiperidin-4-yl)amino)methyl)-6-methoxypyridin-2-yl)benzonitrile], the pEC50 was 6.57.
`COc1nc(-c2cccc(-c3ccnc(-c4cc(OC)c5nc(CNC(C)C)nn5c4)c3Cl)c2Cl)ccc1CNC1CCN(C(C)=O)CC1` [Cmpd 644, 1-(4-(((6-(2-chloro-3-(3-chloro-2-(2-((isopropylamino)methyl)-8-methoxy-[1,2,4]triazolo[1,5-a]pyridin-6-yl)pyridin-4-yl)phenyl)-2-methoxypyridin-3-yl)methyl)amino)piperidin-1-yl)ethan-1-one] showed a pEC50 of 7.07.
In the case of `COc1cc(-c2nccc(-c3ccnc(-c4cc(F)c(CN5CC6(CNC(=O)C6)C5)c(OC)c4)c3Cl)c2Cl)cc(F)c1CN1CC2(CNC(=O)C2)C1` [Compound 323, 2,2′-(((3,3′-Dichloro-[4,4′-bipyridine]-2,2′-diyl)bis(2-fluoro-6-methoxy-4,1-phenylene))bis(methylene))bis(2,6-diazaspiro[3.4]octan-7-one)], the pEC50 was 6.79.
Compound `COc1nc(-c2cncc(-c3cccc(NC(=O)c4cn(C)c(=O)n(C)c4=O)c3Cl)c2Cl)ccc1CNC[C@@H]1CCC(=O)N1` [Compound 712, (S)—N-(2-Chloro-3-(4′-chloro-6-methoxy-5-((((5-oxopyrrolidin-2-yl)methyl)amino)methyl)-[2,3′-bipyridin]-5′-yl)phenyl)-1,3-dimethyl-2,4-dioxo-1,2,3,4-tetrahydropyrimidine-5-carboxamide] has a pEC50 of 7.05.
`COc1nc(-c2ccnc(-c3cccc(NC(=O)c4cn(C)c(=O)n(C)c4=O)c3Cl)c2Cl)ccc1CNC[C@@H]1CCC(=O)N1` [Compound 718, (S)—N-(2-Chloro-3-(3′-chloro-6-methoxy-5-((((5-oxopyrrolidin-2-yl)methyl)amino)methyl)-[2,4′-bipyridin]-2′-yl)phenyl)-1,3-dimethyl-2,4-dioxo-1,2,3,4-tetrahydropyrimidine-5-carboxamide] showed a pEC50 of 7.09.
Work on `COc1nc(-c2ccnc(-c3cccc(NC(=O)c4cn(C)c(=O)n(C)c4=O)c3Cl)c2Cl)ccc1CN1CC2(CNC(=O)C2)C1` [Compound 719, N-(2-Chloro-3-(3′-chloro-6-methoxy-5-((7-oxo-2,6-diazaspiro[3.4]octan-2-yl)methyl)-[2,4′-bipyridin]-2′-yl)phenyl)-1,3-dimethyl-2,4-dioxo-1,2,3,4-tetrahydropyrimidine-5-carboxamide] yielded a pEC50 of 6.38.
Work on `COc1nc(-c2cncc(-c3cccc(NC(=O)c4cn(C)c(=O)n(C)c4=O)c3Cl)c2Cl)ccc1CN1CC2(CNC(=O)C2)C1` [Compound 722, N-(2-Chloro-3-(4′-chloro-6-methoxy-5-((7-oxo-2,6-diazaspiro[3.4]octan-2-yl)methyl)-[2,3′-bipyridin]-5′-yl)phenyl)-1,3-dimethyl-2,4-dioxo-1,2,3,4-tetrahydropyrimidine-5-carboxamide] yielded a pEC50 of 6.09.
Compound `COc1nc(-c2cncc(-c3cccc(NC(=O)c4cn(C)c(=O)n(C)c4=O)c3Cl)c2Cl)ccc1CNC1CCN(C(C)=O)CC1` [Compound 723, N-(3-(5-(((1-Acetylpiperidin-4-yl)amino)methyl)-4′-chloro-6-methoxy-[2,3′-bipyridin]-5′-yl)-2-chlorophenyl)-1,3-dimethyl-2,4-dioxo-1,2,3,4-tetrahydropyrimidine-5-carboxamide] has a pEC50 of 5.73.
For `COc1nc(-c2cncc(-c3cccc(NC(=O)c4cn(C)c(=O)n(C)c4=O)c3Cl)c2Cl)ccc1CNC[C@H](C)O` [Compound 729, (S)—N-(2-Chloro-3-(4′-chloro-5-(((2-hydroxypropyl)amino)methyl)-6-methoxy-[2,3′-bipyridin]-5′-yl)phenyl)-1,3-dimethyl-2,4-dioxo-1,2,3,4-tetrahydropyrimidine-5-carboxamide], the pEC50 was 6.19.
Work on `COc1nc(-c2cncc(-c3cccc(NC(=O)c4cn(C)c(=O)n(C)c4=O)c3Cl)c2Cl)ccc1CN1CC2(C1)CN(C(C)=O)C2` [Compound 730, N-(3-(5-((6-Acetyl-2,6-diazaspiro[3.3]heptan-2-yl)methyl)-4′-chloro-6-methoxy-[2,3′-bipyridin]-5′-yl)-2-chlorophenyl)-1,3-dimethyl-2,4-dioxo-1,2,3,4-tetrahydropyrimidine-5-carboxamide] yielded a pEC50 of 5.96.
For `COc1nc(-c2cccc(-c3ccnc(-c4cc5c(=O)n(C)c(CN6CC(C)(O)C6)nn5c4)c3Cl)c2Cl)ccc1CN[C@H]1C[C@](C)(O)C1` [Example 232, 6-(3-Chloro-4-(2-chloro-3-(5-((((1r,3r)-3-hydroxy-3-methylcyclobutyl)amino)methyl)-6-methoxypyridin-2-yl)phenyl)pyridin-2-yl)-2-((3-hydroxy-3-methylazetidin-1-yl)methyl)-3-methylpyrrolo[2,1-f][1,2,4]triazin-4(3H)-one], the pEC50 was 6.99.
Compound `COc1nc(-c2cccc(-c3ccnc(-c4cc5c(=O)n(C)c(CN6CC(C)(O)C6)nn5c4)c3Cl)c2Cl)ccc1CNC(C)C` [Example 233, 6-(3-Chloro-4-(2-chloro-3-(5-((isopropylamino)methyl)-6-methoxypyridin-2-yl)phenyl)pyridin-2-yl)-2-((3-hydroxy-3-methylazetidin-1-yl)methyl)-3-methylpyrrolo[2,1-f][1,2,4]triazin-4(3H)-one] has a pEC50 of no more than 5.00.
With `COc1nc(-c2cccc(-c3ccnc(-c4cc5c(=O)n(C)c(CN6CC(C)(O)C6)nn5c4)c3Cl)c2Cl)ccc1CN[C@H]1CC[C@H](O)CC1` [Example 234, 6-(3-Chloro-4-(2-chloro-3-(5-((((1r,4r)-4-hydroxycyclohexyl)amino)methyl)-6-methoxypyridin-2-yl)phenyl)pyridin-2-yl)-2-((3-hydroxy-3-methylazetidin-1-yl)methyl)-3-methylpyrrolo[2,1-f][1,2,4]triazin-4(3H)-one] the pEC50 was 6.85.
Work on `COc1nc(-c2cccc(-c3ccnc(-c4ccc5c(CNC[C@@H]6CCO6)nn(C)c5c4)c3Cl)c2Cl)ccc1CNC[C@@H]1CCC(=O)N1` [Example 235, (S)-5-((((6-(2-Chloro-3-(3-chloro-2-(1-methyl-3-(((((S)-oxetan-2-yl)methyl)amino)methyl)-1H-indazol-6-yl)pyridin-4-yl)phenyl)-2-methoxypyridin-3-yl)methyl)amino)methyl)pyrrolidin-2-one] yielded a pEC50 of 7.19.
